Where a name gives a salt, the structure may show the parent alone. Read-outs that look alike come from different tables or passages of the source.
Tests used:
[1] = test system: mouse whole spleen lymphocytes (LPS-induced B cell activation and proliferation); test: LPS-induced lymphocyte proliferation assay (3H-thymidine); assay type: cell-based; settings: for IC50: LPS 10 μg/ml, 48 hours, 3H-thymidine, read-out: LPS IC50
Description: BALB/c mice were sacrificed by cervical dislocation, and spleens were aseptically excised to prepare whole spleen lymphocytes. The cells were adjusted to the required concentration.
A suspension of mouse spleen lymphocytes was inoculated into a 96-well plate at 5×10^5/well, and ConA (final concentration: 1 μg/ml) or LPS (final concentration: 10 μg/ml) and the above 10 concentration gradients of the compound were added. Corresponding cell control wells without ConA and LPS, as well as medicament-free stimulated control wells, were set up. The cells were cultured in a 37° C., 5% CO2 incubator for 48 hours. Eight hours before the end of the culture, ^3H-thymidine was added, and the culture continued until the end of the experiment (i.e., the aforementioned 48 hours). The cells were collected onto glass fiber membranes using a cell collector.
ConA and LPS, as mitogens, stimulated proliferation and differentiation of T and B lymphocytes, respectively. This process is similar to the activation process of lymphocytes in vivo. Therefore, mitogen-induced lymphocyte proliferation is commonly used as an indicator to evaluate functionality of lymphocytes.

IL-6 = IL-6 production by LPS-induced RAW264.7 cells (ELISA); assay type: cell-based, mouse; settings: for production of IL-6: LPS-induced RAW264.7, in words; for IC50: Mus musculus, LPS 10 μg/ml, RAW264.7
Description: RAW264.7 cells were inoculated into a 96-well plate at 1×10^5/well and allowed to adhere to the wall for 6 hours in a 37° C., 5% CO2 incubator. […] After the cells adhered to the wall, the stimulant LPS (final concentration: 10 μg/ml) and the gradient-diluted compounds were added. A corresponding stimulation control and a cell control (without stimulation) were set up. After the end of the culture, the cell culture supernatants were collected, and the levels of TNF-α, IL-1β and IL-6 were measured by ELISA.

[2] = Cytotoxicity (CC50) on mouse whole spleen lymphocytes, Example 3; assay type: cell-based; settings: BALB/c; mouse whole spleen lymphocytes (Tables 3 and 4)
Description: (§1) BALB/c mice were sacrificed by cervical dislocation, and spleens were aseptically excised to prepare whole spleen lymphocytes. The cells were adjusted to 5×10^6 cells/ml. Hydroxychloroquine sulfate was diluted with a 3-fold gradient into 3 concentrations starting from 30 μM: 30, 10 and 3 μM; naphthoquine phosphate was diluted with a 3-fold gradient into 3 concentrations starting from 10 μM: 10, 3 and 1 μM.

[3] = test system: mouse whole spleen lymphocytes; test: TLRs-L-stimulated proliferation of mouse whole spleen lymphocytes (3H-TdR); assay type: cell-based; settings: for IC50: Mus musculus, Lymphocyte, 48 h
Description: as §1
A suspension of mouse spleen lymphocytes was inoculated into a 96-well plate at […], and the stimulant TLR4-L (final concentration: 10 μg/ml), TLR7-L (final concentration: 5 μg/ml) or TLR9-L (final concentration: 1 μM) and compounds diluted with the above concentration gradients were added. A corresponding stimulation control and a cell control (without stimulation) were set up. The cells were cultured in a 37° C., 5% CO2 incubator for 48 hours. Eight hours before the end of culture, ^3H-TdR was added, and the culture continued until the end of the experiment. The cells were collected onto glass fiber membranes using a cell collector. 5 ml scintillation fluid was added, and the values of radioactive counts per minute were read on a Beta counter (2450 Microplate Counter, PerkinElmer).

IL-1β = IL-1β secretion by TLRs-L-stimulated mouse whole spleen lymphocytes (ELISA); assay type: cell-based; settings: Lymphocyte, 48 h, read-out: IB-1β IC50
Description: as §1
Mouse spleen lymphocytes were inoculated into a 96-well plate at 100 μl/well, and the stimulant TLR4-L (final concentration: 10 μg/ml), TLR7-L (final concentration: 5 μg/ml) or TLR9-L (final concentration: 1 μM) and the compounds diluted with the above concentration gradients were added. A corresponding stimulation control and a cell control (without stimulation) were set up. The cells were cultured in a 37° C., 5% CO2 incubator for 48 hours. After the end of the culture, the cell culture supernatants were collected, and the levels of IL-1β, IL-6, and IL-10 were measured by ELISA.

purified mouse B cells = test: B cell proliferation assay, TLRs-L-stimulated purified mouse B cells (3H-TdR); assay type: cell-based; settings: for IC50: Mus musculus, B-cell, 48 h, purified B cells, stimulant TLR4-L 10 μg/ml; for proliferation of purified mouse splenic B cells and production of inflammatory cytokines and antibodies induced by specific TLR signals: in words
Description: (§2) BALB/c mice were sacrificed by cervical dislocation, and spleens were aseptically excised to prepare spleen lymphocytes. The cells were adjusted to 1×10^8 cells/ml, blocked with 2.4G2 (final concentration: 10 μg/ml) for 20 min, cultured with PE-CD19 (final concentration: 5 μg/ml) for 20 min, washed with MACS buffer, centrifuged at 4° C., 300G for 10 min, 100 μl anti-PE beads were added per 1×10^8 cells, incubated with 900 μl MACS buffer for 15 min, washed with MACS buffer, centrifuged at 4° C., 300G for 10 min. The supernatant was discarded. 500 μl MACS buffer was added per 1×10^8 cells to resuspend the cells. MACS column was used for separation. Magnetically labeled cells were retained on the column. The MACS column was removed from the magnetic field and then eluted.
Hydroxychloroquine sulfate was diluted 2-fold into 3 concentrations starting from 8 μM: 8, 4 and 2 μM. Naphthoquine phosphate was diluted 2-fold into 3 concentrations starting from 0.5: 0.5, 0.25 and 0.125 μM. A suspension of purified mouse B cells was inoculated into a 96-well plate at 4×10^5/well, and the stimulant TLR4-L (final concentration: 10 μg/ml), TLR7-L (final concentration: 5 μg/ml) or TLR9-L (final concentration: 1 μM) and the gradient diluted compounds were added. A corresponding stimulation control and a cell control (without stimulation) were set up. The cells were cultured in 37° C., 5% CO2 incubator for 48 hours. Eight hours before the end of the culture, ^3H-TdR was added, and the culture was continued until the end of the experiment. The cells were collected onto glass fiber membranes using a cell collector. 5 ml scintillation fluid was added, and the values of radioactive counts per minute were read on a Beta counter (2450 Microplate Counter, PerkinElmer).

IgM = IgM secretion by TLRs-L-stimulated purified mouse B cells (ELISA); assay type: cell-based; settings: B-cell, 120 h, stimulant TLR4-L 10 μg/ml
Description: as §2
A suspension of purified mouse B cells was inoculated into a 96-well plate at 4×10^5/well. Hydroxychloroquine sulfate was diluted with a 2-fold gradient into 3 concentrations, starting from 8 μM: 8, 4 and 2 μM. Naphthoquine phosphate was diluted with a 2-fold gradient into 3 concentrations starting from 0.5 μM.: 0.5, 0.25 and 0.125 μM. […] After the end of the culture, the cell culture supernatants were collected, and the levels of IgG and IgM were measured by ELISA.

IC50 (IL-6) [µM] | IC50 (IL-1β; stimulant TLR4-L 10 μg/ml) [µM] | IC50 (IL-1β; stimulant TLR9-L 1 μM) [µM] | IC50 (IgM) [µM] | SMILES | IC50 ([1]; listed as Hydroxychloroquine Sulfate (Zhongxi Sunve)) [µM] | IC50 ([1]; Mus musculus, Lymphocyte) [µM] | production of IL-6 (IL-6) | CC50 [2] [µM] | IC50 ([3]; stimulant TLR4-L 10 μg/ml) [µM] | IC50 ([3]; stimulant TLR7-L 5 μg/ml) [µM] | IC50 ([3]; stimulant TLR9-L 1 μM) [µM] | IC50 (purified mouse B cells) [µM] | proliferation of purified mouse splenic B cells and production of inflammatory cytokines and antibodies induced by specific TLR signals (purified mouse B cells) | effect on LPS-induced B cell activation and proliferation ([1]; in words) | proliferation and cytokine and antibody secretion mediated by specific TLRs-L ([3]; mouse whole spleen lymphocytes, in words)
16.5 | 32 | 41.6 | > 8 | CCN(CCO)CCCC(C)Nc1ccnc2cc(Cl)ccc12 (centres unmarked) [Hydroxychloroquine Sulfate, hydroxychloroquine sulfate] | 14.9 | 14.9 | no significant effect | 26.9 | 6.61 | 18.9 | 8.79 | 9.95 | inhibited |  | 
> 10 | 3.35 |  | 0.21 | CC(C)(C)NCc1cc(Nc2ccnc3cc(Cl)ccc23)c2c(c1O)CCCC2.O=P(O)(O)O.O=P(O)(O)O [Naphthoquine Phosphate, Naphthoquine phosphate] |  | 0.08 | no significant effect | 1.59 | 0.129 | 1.05 | 0.218 | 0.19 | inhibited | significant inhibitory activity | significantly inhibited

— US20250332154A1, “USE OF NAPHTHOQUINE PHOSPHATE IN PREPARATION OF A MEDICAMENT FOR TREATING AUTOIMMUNE DISEASES” (SHANGHAI PHARMACEUTICALS INDUSTRY CO., LTD, priority 2022, published 2025)
